Data taken from PMC6995558, “Biological Evaluation, Molecular Docking, and SAR Studies of Novel 2-(2,4-Dihydroxyphenyl)-1H- Benzimidazole Analogues” (Biomolecules, 2019).
Read-outs that look alike come from different tables or passages of the source.

What was measured:
[1] = RP-18 HPLC chromatography lipophilicity estimation; type: physicochemical; conditions: for −S (slope): methanol/acetate buffer pH 4.0; for log kw (intercept): methanol/acetate buffer pH 4.0, extrapolated to pure water
Procedure: The Eurosil Bioselect C18 (5 μm, 300 × 4.6 mm) column was used as the stationary phase. The mobile phase consisted of different volume mixtures of methanol and 20 mM acetate buffer as the aqueous phase to give pH 4.0. The organic modifier concentration ranged from 0.30 to 0.75, depending on the structure of the compound at 0.05 (0.1) intervals. The flow rate was 0.5 cm^3·min^−1 at room temperature. Measurements were made at 292 nm. The retention time of an unretained solute (t0) was determined by the injection of a small amount of acetone dissolved in water. […] This is described by the Soczewiński–Wachtmeister dependence: log k = log kw + S (% organic modifier)(1) in which log kw is the retention factor of a solute with pure water as the mobile phase (intercept) and S is the regression curve (slope). The log k values were calculated as log k = log (tR − t0)/t0, where tR is the retention time of a solute and t0 is the retention time of an unretained solute.
To find the structure–activity relationships, some quantities of the compounds were estimated (Table 5). They included the lipophilicity parameter log kw obtained by RP-HPLC and calculated in silico log P, the topological polar surface area (tPSA), and the molar refractivity (MR) (Table 5). The log kw and S parameters obtained by the extrapolation technique are commonly used as lipophilicity descriptors.

[2] = target: T1, Acetylcholinesterase (AChE, E.C. 3.1.1.7, from human erythrocytes) (Homo sapiens, UniProt P22303); experiment: biochemical; type: biochemical; conditions: for Selectivity for AChE: IC50(BuChE)/IC50(AChE); for IC50: means ± SD of three independent experiments
T1 construct: Acetylcholinesterase (AChE, E.C. 3.1.1.7, from human erythrocytes); purchased Sigma-Aldrich (Steinheim, Germany); host or cells: human erythrocytes (natural source)
T1 sequence (P22303 32-617 isoform P22303-2 limits assumed): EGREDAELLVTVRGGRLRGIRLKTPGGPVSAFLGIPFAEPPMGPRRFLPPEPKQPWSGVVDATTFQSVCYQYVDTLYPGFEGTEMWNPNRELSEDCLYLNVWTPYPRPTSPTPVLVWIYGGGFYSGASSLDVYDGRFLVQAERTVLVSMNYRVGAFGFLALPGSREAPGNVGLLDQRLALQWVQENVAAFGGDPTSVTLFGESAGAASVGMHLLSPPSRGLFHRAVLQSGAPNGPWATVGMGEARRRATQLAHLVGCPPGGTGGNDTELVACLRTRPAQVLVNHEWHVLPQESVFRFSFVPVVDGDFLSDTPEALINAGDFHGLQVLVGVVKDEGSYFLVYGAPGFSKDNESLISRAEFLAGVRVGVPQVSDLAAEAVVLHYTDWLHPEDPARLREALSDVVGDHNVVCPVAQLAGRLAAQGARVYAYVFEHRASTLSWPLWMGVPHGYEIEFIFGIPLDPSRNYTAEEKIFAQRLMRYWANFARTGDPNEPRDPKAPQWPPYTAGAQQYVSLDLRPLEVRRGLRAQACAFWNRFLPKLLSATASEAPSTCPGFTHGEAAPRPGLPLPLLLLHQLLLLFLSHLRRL
Procedure: (§1) The details were described previously.
(§2) Their potency was determined using the modified Ellman’s method and expressed as the half of maximal inhibitory concentration, IC50 [34].

[3] = target: T2, butyrylcholinesterase (BuChE, E.C. 3.1.1.8, from equine serum) (Equus caballus, UniProt P81908); experiment: biochemical
T2 construct: butyrylcholinesterase (BuChE, E.C. 3.1.1.8, from equine serum); purchased Sigma-Aldrich (Steinheim, Germany); host or cells: equine serum (natural source)
T2 sequence (P81908 whole entry): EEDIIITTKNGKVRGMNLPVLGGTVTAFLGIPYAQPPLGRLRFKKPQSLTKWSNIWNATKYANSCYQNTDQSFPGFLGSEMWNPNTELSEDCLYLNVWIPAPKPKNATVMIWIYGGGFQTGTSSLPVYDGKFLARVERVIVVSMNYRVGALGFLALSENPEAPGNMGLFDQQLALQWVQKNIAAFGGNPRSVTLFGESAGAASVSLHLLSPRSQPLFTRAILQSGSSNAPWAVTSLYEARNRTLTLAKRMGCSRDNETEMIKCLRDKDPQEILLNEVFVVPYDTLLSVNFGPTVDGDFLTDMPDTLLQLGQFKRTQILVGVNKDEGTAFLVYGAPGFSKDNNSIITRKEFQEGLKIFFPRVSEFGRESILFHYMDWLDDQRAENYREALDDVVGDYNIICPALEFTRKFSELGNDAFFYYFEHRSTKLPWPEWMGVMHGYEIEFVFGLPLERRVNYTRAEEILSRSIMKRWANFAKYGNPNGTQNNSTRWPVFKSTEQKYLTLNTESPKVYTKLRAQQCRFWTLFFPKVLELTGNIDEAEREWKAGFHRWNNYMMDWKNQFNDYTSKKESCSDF
Procedure: as §1, §2

AChE = conditions: Figure 1; cited from earlier work
[4] = In vitro antioxidant activity assay (DPPH radical scavenging); conditions: DPPH 100 μM in methanol, 37 °C, 30 min; means ± SD of three experiments; read-out: IC50(DPPH) radical scavenging effect
Procedure: Antioxidant activity of each compound and standards (rutin) was assessed based on the radical scavenging effect of stable DPPH free radical. An amount of 10 μL of each tested compound or standard series of different concentrations (from 0.0 to 100 µM) was added to 9 mL of methanol solution of 2,2-diphenyl-1-picrylhydrazyl (DPPH) (100 μM). After incubation at 37 °C for 30 min, decrease in the absorbance of each solution was measured at 520 nm. The absorbance of the blank sample containing the same amount of DMSO and DPPH solution was also prepared and measured. All experiments were conducted in triplicate. The scavenging potential was compared with a solvent control (0% radical scavenging) and the standard compound. Radical scavenging activity (%AA) was calculated by the following formula: (%AA) = [(A0 − A1)/A0] × 100%(3) in which (A0) is the absorbance of the blank sample and (A1) is the absorbance of the tested compound (t = 30 min).
Reactive oxygen species are a causal factor in the process of aging and the cumulative damage has been associated with AD [45]. In this study, the DPPH radical scavenging activity of the newly synthesized compounds was estimated using the Brand-Williams method.

[5] = target: T3, Amyloid β-peptide (1–42) (Aβ42) (Homo sapiens, UniProt P05067); experiment: biochemical; conditions: ThT fluorescence, 24 h at 37 °C; means ± SD of three experiments; read-out: IC50(Aβ(1–42)) self-induced aggregation
T3 construct: Amyloid β-peptide, (1–42) (Aβ42), was purchased from Aldrich; purchased Aldrich
T3 sequence (P05067 672-713 limits assumed): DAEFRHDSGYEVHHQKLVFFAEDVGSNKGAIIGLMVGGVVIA
Procedure: Amyloid β-peptide, (1–42) (Aβ42), was purchased from Aldrich. Aβ42 was diluted in the phosphate buffer (pH 8.0) to obtain a 125.8 µM solution. The compounds under study were first dissolved in a small amount of methanol, and then further diluted in the phosphate buffer to the final concentration of 5–160 μM. To study the Aβ42 aggregation inhibition, the fluorescence emission of thioflavin T (ThT) was followed with curcumin as the reference compound [35, 36]. At first, the Aβ42 (10 μL) samples and the tested compounds (10 μL) were diluted with the phosphate buffer (60 μL) and then they were incubated for 24 h at 37 °C without stirring. As for the control, a sample of the peptide was incubated without the inhibitor. The tests were carried out in black, flat-bottom, 96-well plates. Then 20 µL of 2.5 µM ThT in 50 mM glycine–NaOH (pH 8.5) was added and incubated for 5 min. Fluorescence was monitored with the excitation at 446 nm and the emission at 490 nm. A time scan of fluorescence was performed and the intensity values reached the plateau (300 s). […]. The reported values were obtained as the mean ± SD of triplicate of three independent experiments.
Nowadays, the amyloid hypothesis has become the dominating paradigm for understanding AD [44]. Aβ(1–42) is the most amyloidogenic Aβ fragment found in the AD plaques. […].

[6] = means ± SD of three experiments, read-out: BuChE IC50

| Structure (SMILES) | −S (slope) [1] | log kw (intercept) [1] | Selectivity for AChE [2] | IC50 [2] [nM] | IC50 [3, 6] [nM] | IC50 (AChE) [nM] | Activity against AChE (in words) [2] | IC50 [4] [nM] | IC50 [3] [nM] | Selectivity for AChE with respect to BuChE (in words) [2] | IC50 [5] [nM] |
| --- | --- | --- | --- | --- | --- | --- | --- | --- | --- | --- | --- |
| CCOC(=O)c1ccc2[nH]c(-c3cc(CC)c(O)cc3O)nc2c1 [Compound 9, Ethyl 2-(5-ethyl-2,4-dihydroxyphenyl)-1H-benzimidazole-5-carboxylate] | 4.160 | 3.067 | 45.6 | 962 ± 23 | 43860 ± 381 |  |  |  |  |  |  |
| Oc1ccc(-c2nc3ccccc3[nH]2)c(O)c1 [bib-1,3-diol, 4-(1H-benzimidazol-2-yl)benzene-1,3-diol, reference compound] | 2.979 | 1.732 | 109.2 | 284 ± 14 | 31020 ± 133 |  |  |  |  |  |  |
| CCN(CC)Cc1cc(-c2nc3cc([N+](=O)[O-])ccc3[nH]2)ccc1O [compound b] |  |  |  |  |  | 930 |  |  |  |  |  |
| COc1ccc2nc(-c3ccc(O)c(O)c3O)[nH]c2c1 [Compound 7, 4-(6-Methoxy-1H-benzimidazol-2-yl)benzene-1,2,3-triol] | 3.870 | 3.589 |  | > 500000 | > 500000 |  | inactive |  |  |  |  |
| O=[N+]([O-])c1ccc2nc(-c3ccc(O)cc3O)[nH]c2c1 [Compound 13, 4-(6-Nitro-1H-benzimidazol-2-yl)benzene-1,3-diol] | 4.655 | 2.475 | 71.7 | 1490 ± 118 | 106600 ± 201 |  |  |  |  |  |  |
| C[C@@H]1O[C@@H](OC[C@H]2O[C@@H](Oc3c(-c4ccc(O)c(O)c4)oc4cc(O)cc(O)c4c3=O)[C@H](O)[C@@H](O)[C@@H]2O)[C@H](O)[C@H](O)[C@H]1O [rutin, reference compound] |  |  |  |  |  |  |  | 87 ± 40 |  |  |  |
| CN(C)C(=O)Oc1cccc([N+](C)(C)C)c1 [neostigmine, reference compound] |  |  |  |  |  |  |  |  | 68 ± 5 |  |  |
| CN1c2c(nn(-c3ccc(-c4nc5ccccc5[nH]4)cc3)c2-c2ccccc2)-c2ccccc2S1(=O)=O [compound f] |  |  |  |  |  | 11 |  |  |  |  |  |
| Clc1ccc2[nH]c(-c3ccc(OCCN4CCCCC4)cc3)nc2c1 [compound a] |  |  |  |  |  | 130 |  |  |  |  |  |
| COc1ccc2nc(-c3cc(Cl)c(O)cc3O)[nH]c2c1 [Compound 6, 4-(6-Methoxy-1H-benzimidazol-2-yl)-6-chlorobenzene-1,3-diol] | 5.390 | 4.808 | 203.4 | 92 ± 2 | 18710 ± 173 |  |  | 362 ± 10 |  | highly selective | 27000 ± 2290 |
| Cc1c(O)ccc(-c2nc3ccc(C(F)(F)F)cc3[nH]2)c1O [Compound 3, 4-[6-(Trifluoromethyl)-1H-benzimidazol-2-yl]-2-methylbenzene-1,3-diol] | 6.299 | 5.720 | 143.1 | 98 ± 5 | 14020 ± 111 |  |  |  |  |  |  |
| CCOC(=O)c1ccc2[nH]c(-c3ccc(O)c(C)c3O)nc2c1 [Compound 8, Ethyl 2-(2,4-dihydroxy-3-methylphenyl)-1H-benzimidazole-5-carboxylate] | 4.097 | 2.566 | 137.8 | 184 ± 22 | 25350 ± 232 |  |  | 125 ± 60 |  |  |  |
| CCc1cc(-c2nc3ccc(C#N)cc3[nH]2)c(O)cc1O [Compound 12, 2-(5-Ethyl-2,4-dihydroxyphenyl)-1H-benzimidazole-6-carbonitrile] | 4.854 | 3.360 |  | > 500000 | > 500000 |  |  | 209 ± 20 |  |  |  |
| Oc1cc(O)c(-c2nc3cc(Cl)c(Cl)cc3[nH]2)cc1Cl [Compound 2, 4-(5,6-Dichloro-1H-benzimidazol-2-yl)-6-chlorobenzene-1,3-diol] | 5.770 | 5.460 | 41.9 | 541 ± 36 | 22690 ± 78 |  |  | 213 ± 80 |  |  |  |
| Cc1c(O)ccc(-c2nc3ccc([N+](=O)[O-])cc3[nH]2)c1O [Compound 14, 2-Methyl-4-(6-nitro-1H-benzimidazol-2-yl)benzene-1,3-diol] | 4.596 | 2.674 | 88.1 | 1000 ± 196 | 88360 ± 155 |  |  |  |  |  |  |
| C=Cc1ccc(C[n+]2cn(C)c3ccccc32)cc1 [e] |  |  |  |  |  | 45 |  |  |  |  |  |
| CCc1cc(-c2nc3cc(C(F)(F)F)cc(Cl)c3[nH]2)c(O)cc1O [Compound 4, 4-(7-Chloro-5-(trifluoromethyl)-1H-benzimidazol-2-yl)-6-ethylbenzene-1,3-diol] | 4.635 | 4.237 | 390.0 | 118 ± 9 | 46030 ± 104 |  |  |  |  | highly selective |  |
| O=C1c2ccccc2C(=O)N1CCCn1c[n+](Cc2cccc3ccccc23)c2ccccc21 [d] |  |  |  |  |  | 56 |  |  |  |  |  |
| CCOC(=O)c1ccc2[nH]c(-c3c(O)cc(O)cc3O)nc2c1 [Compound 10, Ethyl 2-(2,4,6-trihydroxyphenyl)-1H-benzimidazole-5-carboxylate] | 3.237 | 2.088 |  | > 500000 | > 500000 |  | inactive |  |  |  |  |
| Cc1c(O)ccc(-c2nc3ccc(C#N)cc3[nH]2)c1O [Compound 11, 2-(2,4-Dihydroxy-3-methylphenyl)-1H-benzimidazole-6-carbonitrile] | 3.867 | 3.590 |  | > 500000 | > 500000 |  |  |  |  |  |  |
